Assay results: patent publication US11918352B2, “Non-invasive determination of a physiological state of interest in a subject” (ISBRG CORP., priority 2018, dated 2024)

Experiments:
[1] = Analyte composition of a subject after consumption (Table 2, simplified illustrative data set); assay type: in vivo, human; conditions: for Analyte level, intoxicated state: 1 hr after consumption, THC induced intoxicated state; for Analyte level, post-intoxicated state: 36 hr after consumption
Source text: For example, which is not to be considered limiting, in a THC induced intoxicated state, a subject may comprise the analyte composition presented in Table 1. It is to be understood that this table presents a simplified data set to exemplify the method described herein. Other analytes, which may include known analytes or ghost analytes, are indicated as analytes A, B . . . C; A′, B′, . . . C′; A″, B″ . . . C″. These other analytes may increase or decrease in response to, or that are correlated with, the physiological condition and they may be included in this analysis.
In this example, the result may be considered positive for a THC-induced intoxicated state if the Index is greater than a preset value which is determined based on an analysis of the analytes determined in subjects who were exposed to a control treatment, or a range of THC under controlled conditions, for example an Index value of (2+A)/(C+ . . . +C) may be an indication of a positive result for the state of THC-induced intoxication.

[2] = cited from earlier work

## CCCCCc1cc(O)c2c(c1)OC(C)(C)C1CCC(CO)=CC21 (stereo not shown) [11-OH-THC, 11-hydroxy THC]
[1]
  Analyte level, intoxicated state: 5 ng/mL
  Analyte level, post-intoxicated state: 2 ng/mL

## CCCCCc1cc(O)c2c(c1)OC(C)(C)[C@@H]1CCC(C(=O)O)=C[C@@H]21 [THC-COOH, 11-nor-9-carboxy-THC]
[1]
  Analyte level, intoxicated state: 5 ng/mL
  Analyte level, post-intoxicated state: 11 ng/mL

## CCCCCc1cc(O)c2c(c1)OC(C)(C)[C@@H]1CCC(C)=C[C@@H]21 [THC, delta-9-tetrahydrocannabinol]
[2]; chronic users of marijuana, detected for 24 to 48 hours or longer, serum
  Residual THC in serum: 1.0 to 6.4 ng/mL
[2]; chronic users of marijuana, detected for 24 to 48 hours or longer, whole blood
  Residual THC in whole blood: 0.5 to 3.2 ng/mL
[2]; smoked marijuana, after inhaling
  Time of THC peak: first few minutes
[2]; smoked marijuana, for 8 hours or more
  THC level remaining: 1 to 2 ng/mL
[1]
  Analyte level, intoxicated state: 78 ng/mL
  Analyte level, post-intoxicated state: 8 ng/mL
